Experimental data taken from patent US20090297478A1, “Methods and Compositions for the Treatment of Lupus Using Clofarabine” (priority 2002, published 2009).

How the values were obtained:
[1] = maximum tolerated dose of clofarabine; assay type: in vivo; conditions: species and route not given
Method: It may be necessary to use dosages of the active ingredient outside the ranges disclosed herein in some cases, as will be apparent to those of ordinary skill in the art, but the dosage should not fall below 0.01 mg/kg/day. The maximum tolerated doses of clofarabine is approximately 80 mg/kg per day. Furthermore, it is noted that the clinician or treating physician will know how and when to interrupt, adjust, or terminate therapy in conjunction with individual patient response.

[2] = degradation of the drug during dissolution, lyophilization and drying (parenteral formulation); assay type: physicochemical; conditions: dissolved in 1:1 tertiary butanol/Water for Injection at 5° C., lyophilized at −16° C. for 48 hours, dried at 15° C. under high vacuum for 48 hours, protected from light
Method: Clofarabine, 9.86 g, is wetted/partially dissolved with 600 mL of a 9:1 mixture of tertiary butanol and Water for Injection USP which is pre-cooled to 5° C. Once the drug powder is completely wetted, dissolution is completed by the addition of 600 mL of a 1:9 mixture of tertiary butanol and Water for Injection and 766 mL of a 1:1 mixture of tertiary butanol and Water for Injection which likewise is pre-cooled to 5° C. thereby making the final solution a 1:1 mixture. The dissolution is carried out under protection from light.
The solution formed above is promptly lyophilized in a Virtis INOTOP lyophilizer at −16° C. under light protectant conditions over a period of 48 hours. The resultant lyophilized product (lyophile) is then further dried at 15° C. under high vacuum for 48 hours. […] The lyophile is packaged under sterile conditions into 30 mL vials, each containing 50 mg of drug, 50 mg of mannitol and sodium hydroxide to adjust the pH to 7.7 and standard excess to allow for vial/needle/syringe loss.

Nc1nc(Cl)nc2c1ncn2[C@@H]1O[C@H](CO)[C@@H](O)[C@@H]1F [Clofarabine, 2-Chloro-9-(2-deoxy-2-fluoro-β-D-arabinofuranosyl)adenine]
maximum tolerated dose [1]: approximately 80 mg/kg per day | degradation of the drug [2]: No detectable degradation
